Data reported in patent EP1928451B1, “METHODS FOR TREATING SUBSTANCE-RELATED DISORDERS” (SK Biopharmaceuticals Co., LTD, priority 2005, dated 2007).

Assays:
[1] = tested on: selectively-bred alcohol preferring (P) rats; assay: Acute administration: two-bottle choice alcohol intake in alcohol preferring rats; type: in vivo; conditions: dose of about 45 mg/kg and up, oral
Procedure: (§1) A compound of the present invention was tested in ethanol preferring rats, a model for acute and chronic drug addiction in humans using an adaptation of a published method (See, Rezvani, AH et al. Alcohol & Alcoholism, Vol. 25, No. 5, pp. 573-575, 1990, Rezvani AH, et al., Alcohol and Alcoholism (Oxford), 2000, 35(1), 76-83).
(§2) An enantiomer of Formula (Ib) was orally administered in a dose range of from about 10 to about 90 mg/kg in test and control treatment groups of 10 rats per group over a period of 14 days. Test conditions reflected approaches for evaluating patterns of drinking (e.g., single or multiple events).
Adult male selectively-bred alcohol preferring (P) rats were used. […]
(§3) Establishment of baseline alcohol intake: Alcohol intake was determined using a standard two-bottle choice method (as described in Murphy et al. 1988; McBride et al. 1990; Rezvani et al. 1990, 1991, 1993, 1995, 1997, Rezvani and Grady, 1994).
Animals were first given free access to water in a graduated Richter tube for 1 day. […] Water and alcohol intake was recorded at 6 and 24 hour after the treatment, food intake was measured at 24 hour. Animal body weight was measured every day. […]
The results were presented as means ±SEM (Standard Error of the Means). […] Statistical differences between treatment and control groups were determined by using ANOVA and Turkey Student's t test for multiple comparisons.

[2] = tested on: selectively-bred alcohol preferring (P) rats; assay: Chronic administration: two-bottle choice alcohol intake in alcohol preferring rats; type: in vivo
Procedure: as §1, §2
Adult male selectively-bred alcohol preferring (P) rats were used. The selectively-bred alcohol-preferring (P) rats have been characterized and have been widely used to study the effects of different compounds on voluntary alcohol intake (Rezvani et al, 1990, 1991, 1992a, 1992b, 1999, 2000, 2002; 2003; Murphy et al, 1988; Overstreet et al., 1992, 1999; Li and McBride, 1995).
Rats were housed individually in wire mesh cages under a constant room temperature of 22 +1 °C and 12:12 light-dark cycle (8:00-20:00, dark). Animal were fed Agway Prolab Rat/Mouse/ Hamster 3000 formula and water ad libitum.
as §3
Animals were first given free access to water in a graduated Richter tube for 1 day. After the first day, the animals were given access to only a solution of 10% (v/v) ethanol for 3 consecutive days. During this period animals became accustomed to drinking from Richter tubes and to the taste and pharmacological effects of alcohol. Thereafter, they were given free access to both water and a solution of 10% alcohol for at least 3 consecutive weeks and throughout of the period of study. The rats had free access to food. Water and alcohol intake was recorded at 6 and 24 hour after the treatment, food intake was measured at 24 hour. Animal body weight was measured every day.
The effect of chronic administration of a test compound on alcohol intake and tolerance to the anti-craving effects of the test compound was tested in naïve rats treated (via gavage tube) once a day either vehicle or test compound. A test compound dose of 45 mg/Kg was selected as an effective dose for chronic administration based on the results of the acute administration study phase. Themost effective dose was then used for the chronic adminstiration phase and administered for 14 consecutive days. Alcohol and water intake was recorded 6 and 24 h after each treatment administration and food intake was recorded at 24 hr.
The results were presented as means ±SEM (Standard Error of the Means). Alcohol intake (g/kg) was calculated by multiplying the volume of alcohol consumed in mL by 10% and 0.7893 (a factor representing ethanol density)/body weight in kg. Alcohol preference, expressed as percentage, was calculated as follows (volume of alcohol consumed (mL)/total fluid intake (mL)) x 100 (as described in Rezvani and Grady,. 1994; Rezvani et al., 1997). Statistical differences between treatment and control groups were determined by using ANOVA and Turkey Student's t test for multiple comparisons.

[3] = BL (baseline, before treatment), drug group
[4] = Day 1, 45 mg/Kg once a day via gavage
[5] = Day 2, 45 mg/Kg once a day via gavage
[6] = Day 3, 45 mg/Kg once a day via gavage
[7] = Day 4, 45 mg/Kg once a day via gavage
[8] = Day 5, 45 mg/Kg once a day via gavage
[9] = Day 6, 45 mg/Kg once a day via gavage
[10] = Day 7, 45 mg/Kg once a day via gavage
[11] = Day 8, 45 mg/Kg once a day via gavage
[12] = Day 9, 45 mg/Kg once a day via gavage
[13] = Day 10, 45 mg/Kg once a day via gavage
[14] = Day 11, 45 mg/Kg once a day via gavage
[15] = Day 12, 45 mg/Kg once a day via gavage
[16] = Day 13, 45 mg/Kg once a day via gavage
[17] = Day 14, 45 mg/Kg once a day via gavage

NC(=O)OC[C@@H](O)c1ccccc1Cl [Drug]
effect on alcohol intake [1]: significant effect on alcohol intake
tolerance for the test compound's affect on ethanol intake ([2]; 45 mg/Kg once a day for 14 consecutive days): without developing a tolerance
Alcohol Intake [2, 3]: 5.30 g/kg
Alcohol Pref [2, 3]: 71%
Body Weight [2, 3]: 384 g
Water Intake [2, 3]: 30 g/kg
Alcohol Intake [2, 4]: 1.61 g/kg
Alcohol Pref [2, 4]: 28%
Body Weight [2, 4]: 418 g
Water Intake [2, 4]: 62 g/kg
Alcohol Intake [2, 5]: 1.31 g/kg
Alcohol Pref [2, 5]: 24%
Body Weight [2, 5]: 415 g
Water Intake [2, 5]: 60 g/kg
Alcohol Intake [2, 6]: 1.37 g/kg
Alcohol Pref [2, 6]: 24%
Body Weight [2, 6]: 413 g
Water Intake [2, 6]: 60 g/kg
Alcohol Intake [2, 7]: 1.03 g/kg
Alcohol Pref [2, 7]: 16%
Body Weight [2, 7]: 415 g
Water Intake [2, 7]: 68 g/kg
Alcohol Intake [2, 8]: 1.24 g/kg
Alcohol Pref [2, 8]: 21%
Body Weight [2, 8]: 419 g
Water Intake [2, 8]: 68 g/kg
Alcohol Intake [2, 9]: 1.10 g/kg
Alcohol Pref [2, 9]: 21%
Body Weight [2, 9]: 421 g
Water Intake [2, 9]: 61 g/kg
Alcohol Intake [2, 10]: 1.85 g/kg
Alcohol Pref [2, 10]: 34%
Body Weight [2, 10]: 424 g
Water Intake [2, 10]: 48 g/kg
Alcohol Intake [2, 11]: 2.21 g/kg
Alcohol Pref [2, 11]: 35%
Body Weight [2, 11]: 426 g
Water Intake [2, 11]: 52 g/kg
Alcohol Intake [2, 12]: 2.19 g/kg
Alcohol Pref [2, 12]: 45%
Body Weight [2, 12]: 429 g
Water Intake [2, 12]: 40 g/kg
Alcohol Intake [2, 13]: 3.06 g/kg
Alcohol Pref [2, 13]: 52%
Body Weight [2, 13]: 431 g
Water Intake [2, 13]: 44 g/kg
Alcohol Intake [2, 14]: 2.93 g/kg
Alcohol Pref [2, 14]: 57%
Body Weight [2, 14]: 435 g
Water Intake [2, 14]: 30 g/kg
Alcohol Intake [2, 15]: 2.67 g/kg
Alcohol Pref [2, 15]: 58%
Body Weight [2, 15]: 436 g
Water Intake [2, 15]: 27 g/kg
Alcohol Intake [2, 16]: 2.37 g/kg
Alcohol Pref [2, 16]: 42%
Body Weight [2, 16]: 431 g
Water Intake [2, 16]: 48 g/kg
Alcohol Intake [2, 17]: 2.32 g/kg
Alcohol Pref [2, 17]: 40%
Body Weight [2, 17]: 437 g
Water Intake [2, 17]: 54 g/kg
